According to the NIST ThermoML archive (doi:10.1021/je034076x):

Assays:
[1] = xn = mol fraction of the nth substance listed; conditions: 101.3 kPa, Liquid; for viscosity: Capillary tube (Ostwald / Ubbelohde) method; for speed of sound: Pulse-echo method; for mass density: Vibrating tube method
[2] = excess molar enthalpy (molar enthalpy of mixing); xn = mol fraction of the nth substance listed; conditions: 101.3 kPa, Liquid, Flow calorimetry

OCC(F)(F)F [2,2,2-trifluoroethanol] + C1CCOC1
Conditions | excess molar enthalpy [kJ/mol] | mass density [kg/m3] | speed of sound [m/s] | viscosity [mPa·s]
[1], 283.15 K, x2 = 0.1022 | – | – | – | 2.107
[1], 283.15 K, x2 = 0.1087 | – | 1336.89 | 897.7 | –
[1], 283.15 K, x2 = 0.2018 | – | – | – | 1.578
[1], 283.15 K, x2 = 0.2084 | – | 1277.4 | 932.6 | –
[1], 283.15 K, x2 = 0.299 | – | 1226.31 | 966.8 | –
[1], 283.15 K, x2 = 0.3033 | – | – | – | 1.246
[1], 283.15 K, x2 = 0.4037 | – | – | – | 1.037
[1], 283.15 K, x2 = 0.4038 | – | 1171.02 | 1010.1 | –
[1], 283.15 K, x2 = 0.4953 | – | 1125.37 | 1052.1 | –
[1], 283.15 K, x2 = 0.5014 | – | – | – | 0.8927
[1], 283.15 K, x2 = 0.5967 | – | 1076.79 | – | –
[1], 283.15 K, x2 = 0.6013 | – | – | 1104.4 | –
[1], 283.15 K, x2 = 0.6036 | – | – | – | 0.7821
[1], 283.15 K, x2 = 0.7004 | – | – | – | 0.7023
[1], 283.15 K, x2 = 0.7048 | – | 1027.26 | 1161.1 | –
[1], 283.15 K, x2 = 0.7958 | – | – | 1213.8 | –
[1], 283.15 K, x2 = 0.8048 | – | 982.37 | – | –
[1], 283.15 K, x2 = 0.8532 | – | – | – | 0.6208
[1], 283.15 K, x2 = 0.8868 | – | 946.79 | – | –
[1], 283.15 K, x2 = 0.9033 | – | – | – | 0.5846
[1], 283.15 K, x2 = 0.9058 | – | – | 1283.2 | –
[1], 283.15 K, x2 = 0.9657 | – | 913.1 | 1324.1 | –
[1], 298.15 K, x2 = 0.0362 | – | 1358.26 | – | –
[1], 298.15 K, x2 = 0.1022 | – | – | – | 1.467
[1], 298.15 K, x2 = 0.1041 | – | 1315.13 | – | –
[1], 298.15 K, x2 = 0.1106 | – | – | 854.6 | –
[1], 298.15 K, x2 = 0.2018 | – | – | – | 1.169
[1], 298.15 K, x2 = 0.2053 | – | 1255.19 | – | –
[1], 298.15 K, x2 = 0.2095 | – | – | 885 | –
[1], 298.15 K, x2 = 0.3019 | – | – | 917.9 | –
[1], 298.15 K, x2 = 0.3031 | – | 1201.4 | – | –
[1], 298.15 K, x2 = 0.3033 | – | – | – | 0.9632
[1], 298.15 K, x2 = 0.4018 | – | 1150.15 | – | –
[1], 298.15 K, x2 = 0.4037 | – | – | – | 0.8286
[1], 298.15 K, x2 = 0.4065 | – | – | 959.4 | –
[1], 298.15 K, x2 = 0.4986 | – | 1103.07 | – | –
[1], 298.15 K, x2 = 0.5014 | – | – | – | 0.7228
[1], 298.15 K, x2 = 0.5076 | – | – | 1003.3 | –
[1], 298.15 K, x2 = 0.5989 | – | 1055.77 | – | –
[1], 298.15 K, x2 = 0.6036 | – | – | – | 0.6432
[1], 298.15 K, x2 = 0.6172 | – | – | 1055.8 | –
[1], 298.15 K, x2 = 0.7004 | – | – | – | 0.5841
[1], 298.15 K, x2 = 0.7019 | – | 1009.19 | – | –
[1], 298.15 K, x2 = 0.7123 | – | – | 1104.9 | –
[1], 298.15 K, x2 = 0.7978 | – | 967.32 | – | –
[1], 298.15 K, x2 = 0.8205 | – | – | 1164.5 | –
[1], 298.15 K, x2 = 0.8532 | – | – | – | 0.5222
[1], 298.15 K, x2 = 0.899 | – | 924.33 | – | –
[1], 298.15 K, x2 = 0.9033 | – | – | – | 0.4959
[1], 298.15 K, x2 = 0.9042 | – | – | 1216.3 | –
[1], 313.15 K, x2 = 0.1022 | – | – | – | 1.057
[1], 313.15 K, x2 = 0.1024 | – | 1291.64 | 808.3 | –
[1], 313.15 K, x2 = 0.1991 | – | 1234.96 | 834.3 | –
[1], 313.15 K, x2 = 0.2018 | – | – | – | 0.8873
[1], 313.15 K, x2 = 0.3032 | – | 1178.51 | 868.4 | –
[1], 313.15 K, x2 = 0.3033 | – | – | – | 0.7583
[1], 313.15 K, x2 = 0.3554 | – | 1151.61 | 886.4 | –
[1], 313.15 K, x2 = 0.4037 | – | – | – | 0.6648
[1], 313.15 K, x2 = 0.4972 | – | 1082.56 | 942.6 | –
[1], 313.15 K, x2 = 0.5014 | – | – | – | 0.5936
[1], 313.15 K, x2 = 0.596 | – | 1037.96 | 985.9 | –
[1], 313.15 K, x2 = 0.6036 | – | – | – | 0.5356
[1], 313.15 K, x2 = 0.7004 | – | – | – | 0.4916
[1], 313.15 K, x2 = 0.7191 | – | 983.05 | 1045.5 | –
[1], 313.15 K, x2 = 0.7922 | – | 952.13 | 1082.8 | –
[1], 313.15 K, x2 = 0.8532 | – | – | – | 0.4431
[1], 313.15 K, x2 = 0.8937 | – | 909.37 | 1138.7 | –
[1], 313.15 K, x2 = 0.9033 | – | – | – | 0.4239
[2], 283.15 K, x2 = 0.053 | -0.383 | – | – | –
[2], 283.15 K, x2 = 0.107 | -0.723 | – | – | –
[2], 283.15 K, x2 = 0.212 | -1.24 | – | – | –
[2], 283.15 K, x2 = 0.316 | -1.59 | – | – | –
[2], 283.15 K, x2 = 0.417 | -1.74 | – | – | –
[2], 283.15 K, x2 = 0.517 | -1.73 | – | – | –
[2], 283.15 K, x2 = 0.618 | -1.57 | – | – | –
[2], 283.15 K, x2 = 0.717 | -1.27 | – | – | –
[2], 283.15 K, x2 = 0.81 | -0.904 | – | – | –
[2], 283.15 K, x2 = 0.908 | -0.448 | – | – | –
[2], 283.15 K, x2 = 0.954 | -0.213 | – | – | –
[2], 298.15 K, x2 = 0.053 | -0.472 | – | – | –
[2], 298.15 K, x2 = 0.107 | -0.939 | – | – | –
[2], 298.15 K, x2 = 0.212 | -1.54 | – | – | –
[2], 298.15 K, x2 = 0.316 | -1.88 | – | – | –
[2], 298.15 K, x2 = 0.417 | -2 | – | – | –
[2], 298.15 K, x2 = 0.517 | -1.96 | – | – | –
[2], 298.15 K, x2 = 0.618 | -1.75 | – | – | –
[2], 298.15 K, x2 = 0.717 | -1.43 | – | – | –
[2], 298.15 K, x2 = 0.81 | -0.993 | – | – | –
[2], 298.15 K, x2 = 0.908 | -0.489 | – | – | –
[2], 298.15 K, x2 = 0.954 | -0.234 | – | – | –
[2], 313.15 K, x2 = 0.053 | -0.474 | – | – | –
[2], 313.15 K, x2 = 0.107 | -0.928 | – | – | –
[2], 313.15 K, x2 = 0.212 | -1.57 | – | – | –
[2], 313.15 K, x2 = 0.316 | -1.98 | – | – | –
[2], 313.15 K, x2 = 0.417 | -2.14 | – | – | –
[2], 313.15 K, x2 = 0.517 | -2.09 | – | – | –
[2], 313.15 K, x2 = 0.618 | -1.87 | – | – | –
[2], 313.15 K, x2 = 0.717 | -1.51 | – | – | –
[2], 313.15 K, x2 = 0.81 | -1.06 | – | – | –
[2], 313.15 K, x2 = 0.908 | -0.525 | – | – | –
[2], 313.15 K, x2 = 0.954 | -0.257 | – | – | –
